Patent US10294248B2, “Beta-lactamase inhibitors” (VenatoRx Pharmaceuticals, Inc., priority 2013, dated 2019)

What was measured:
[1] = system: S. aureus MSSA-7 producing penicillinase PC-1; assay: Broth microdilution MIC, S. aureus MSSA-7 PC-1; type: cell-based; conditions: fixed 4 μg/mL piperacillin; CAMHB, 16-20 hours at 37° C.
Method in brief: (§1)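 Following CLSI broth microdilution, β-lactamase-producing strains grown 3–5 h were exposed in CAMHB to 2-fold dilutions of test compound (32 to 0.25 μg/mL final). A static 4 μg/mL β-lactam overlay was added. After 16–20 h at 37° C, MIC was scored by eye.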

[2] = molecular target: T1, OXA-1 β-lactamase (Class D oxacillinase) (Escherichia coli, UniProt P13661); assay: β-Lactamase inhibition, OXA-1; type: biochemical; conditions: nitrocefin 100 μM, 486 nm; 15 min preincubation at 37° C., PBS pH 7.4
T1 construct: made in house; host or cells: E. coli BL21(DE3)
T1 sequence (P13661 26-276): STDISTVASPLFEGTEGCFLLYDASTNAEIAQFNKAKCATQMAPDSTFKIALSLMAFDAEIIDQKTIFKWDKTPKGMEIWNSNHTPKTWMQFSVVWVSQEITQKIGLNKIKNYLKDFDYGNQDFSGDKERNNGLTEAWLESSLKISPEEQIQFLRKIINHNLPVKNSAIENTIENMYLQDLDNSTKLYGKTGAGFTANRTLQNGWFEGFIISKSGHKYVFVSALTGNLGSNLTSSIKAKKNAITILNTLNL
Method in brief: (§2)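 Compounds are mixed with purified, untagged recombinant β-lactamase and held 15 min at 37 °C. Substrate is then added: nitrocefin (100 μM final) for OXA-1, imipenem for KPC-2, cefotaxime for SHV-5. Absorbance is followed immediately, and percent inhibition per concentration gives the IC50.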

[3] = molecular target: T2, VIM-2 metallo-β-lactamase (Class B) (Pseudomonas aeruginosa, UniProt Q9K2N0); assay: β-Lactamase inhibition, VIM-2; type: biochemical; conditions: nitrocefin 100 μM, 486 nm; 15 min preincubation at 37° C., PBS pH 7.4
T2 construct: made in house; host or cells: E. coli BL21(DE3)
Method in brief: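 Nitrocefin hydrolysis (100 μM final, A486 read for 10 min) by purified VIM-2 after a 15-min, 37° C enzyme–inhibitor preincubation. IC50 is the concentration halving initial hydrolysis rate, derived from percent inhibition against no-inhibitor wells.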

[4] = system: K. pneumoniae A-1797 expressing KPC-2 and VIM-4; assay: Broth microdilution MIC, K. pneumoniae A-1797 KPC-2/VIM-4; type: cell-based; conditions: fixed 4 μg/mL meropenem; CAMHB, 16-20 hours at 37° C.
Method in brief: as §1

[5] = system: K. pneumoniae 156319 expressing KPC-3; assay: Broth microdilution MIC, K. pneumoniae 156319 KPC-3; type: cell-based; conditions: fixed 4 μg/mL meropenem; CAMHB, 16-20 hours at 37° C.
Method in brief: as §1

[6] = system: P. aeruginosa Ps296 expressing VIM-2; assay: Broth microdilution MIC, P. aeruginosa Ps296 VIM-2; type: cell-based; conditions: fixed 4 μg/mL meropenem; CAMHB, 16-20 hours at 37° C.
Method in brief: as §1

[7] = molecular target: T3, KPC-2 β-lactamase (Class A carbapenemase) (Klebsiella pneumoniae, UniProt Q9F663); assay: β-Lactamase inhibition, KPC-2; type: biochemical; conditions: imipenem substrate, 300 nm; 15 min preincubation at 37° C., PBS pH 7.4
T3 construct: made in house; host or cells: E. coli BL21(DE3)
T3 sequence (Q9F663 25-293, looked up): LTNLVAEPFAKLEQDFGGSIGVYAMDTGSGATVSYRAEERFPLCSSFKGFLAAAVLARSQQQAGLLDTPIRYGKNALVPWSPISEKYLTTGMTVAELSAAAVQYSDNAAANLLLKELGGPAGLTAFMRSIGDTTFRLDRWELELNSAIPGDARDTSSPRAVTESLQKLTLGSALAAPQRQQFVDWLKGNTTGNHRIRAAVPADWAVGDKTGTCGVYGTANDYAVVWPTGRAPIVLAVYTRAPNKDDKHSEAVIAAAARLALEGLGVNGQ
Method in brief: as §2

[8] = system: E. coli ESBL4 expressing CTX-M-15; assay: Broth microdilution MIC, E. coli ESBL4 CTX-M-15; type: cell-based; conditions: fixed 4 μg/mL ceftazidime; CAMHB, 16-20 hours at 37° C.
Method in brief: as §1

[9] = system: E. cloacae 144200 expressing Class C P99 AmpC; assay: Broth microdilution MIC, E. cloacae 144200 p99 AmpC; type: cell-based; conditions: fixed 4 μg/mL ceftazidime; CAMHB, 16-20 hours at 37° C.
Method in brief: as §1

[10] = molecular target: T4, p99 AmpC β-lactamase (Class C) (Enterobacter cloacae, UniProt P05364); assay: β-Lactamase inhibition, p99 AmpC; type: biochemical
T4 construct: made in house; host or cells: E. coli BL21(DE3)
T4 sequence (P05364 21-381): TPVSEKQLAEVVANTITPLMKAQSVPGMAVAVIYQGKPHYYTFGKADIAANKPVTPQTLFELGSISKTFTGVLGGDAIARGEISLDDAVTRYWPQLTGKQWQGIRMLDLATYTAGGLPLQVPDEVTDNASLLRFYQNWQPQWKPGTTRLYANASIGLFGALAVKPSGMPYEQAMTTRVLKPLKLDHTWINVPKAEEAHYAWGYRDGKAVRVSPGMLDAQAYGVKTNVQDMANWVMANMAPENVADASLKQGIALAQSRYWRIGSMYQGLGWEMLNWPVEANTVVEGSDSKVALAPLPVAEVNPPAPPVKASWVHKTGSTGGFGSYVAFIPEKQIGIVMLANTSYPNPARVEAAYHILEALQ

[11] = molecular target: T5, SHV-5 β-lactamase (Class A ESBL) (Klebsiella pneumoniae, UniProt P0A3M1); assay: β-Lactamase inhibition, SHV-5; type: biochemical
T5 construct: made in house; host or cells: E. coli BL21(DE3)
T5 sequence (P0A3M1 22-286): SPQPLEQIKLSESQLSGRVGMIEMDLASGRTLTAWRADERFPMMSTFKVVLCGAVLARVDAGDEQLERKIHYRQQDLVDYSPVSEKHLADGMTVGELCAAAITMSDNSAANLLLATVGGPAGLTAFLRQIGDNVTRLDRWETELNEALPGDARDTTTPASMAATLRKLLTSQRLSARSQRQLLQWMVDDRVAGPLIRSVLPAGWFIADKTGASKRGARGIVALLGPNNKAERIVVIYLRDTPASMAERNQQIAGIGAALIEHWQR
Method in brief: as §2

| SMILES | MIC of example compound in presence of fixed β-lactam: Fixed Pip, S. aureus MSSA-7 PC-1 [1] | IC50 [2] | IC50 [3] | MIC of example compound in presence of fixed β-lactam: Fixed Mero, K. P. A-1797 KPC-2 VIM-4 [4] | MIC of example compound in presence of fixed β-lactam: Fixed Mero, K. P. 156319 KPC-3 [5] | MIC of example compound in presence of fixed β-lactam: Fixed Mero, P. aerug. Ps296 VIM-2 [6] | IC50 [7] | MIC of example compound in presence of fixed β-lactam: Fixed CAZ, E. coli ESBL4 CTX-M-15 [8] | MIC of example compound in presence of fixed β-lactam: Fixed CAZ, E. cl. 144200 p99 AmpC [9] | IC50 [10] | IC50 [11] |
| --- | --- | --- | --- | --- | --- | --- | --- | --- | --- | --- | --- |
| O=C(CN1CCN(c2ccccn2)CC1)N[C@H]1Cc2cccc(C(=O)O)c2OB1O [Example 2, 2-Hydroxy-3-[2-(4-pyridin-2-yl-piperazin-1-yl)-acetylamino]-3,4-dihydro-2H-benzo[e][1,2]oxaborinine-8-carboxylic acid] | C (the MIC in the presence of <4 μg/mL of a β-lactamase inhibitor) | 100 to 1000 nM | 1000 to 10000 nM | A (an MIC of the fixed β-lactam antibiotic in the presence of >32 μg/mL of a β-lactamase inhibitor) | B (the MIC in the presence of between 8 and 32 μg/mL of a β-lactamase inhibitor) | A (an MIC of the fixed β-lactam antibiotic in the presence of >32 μg/mL of a β-lactamase inhibitor) | 100 to 1000 nM | C (the MIC in the presence of <4 μg/mL of a β-lactamase inhibitor) | C (the MIC in the presence of <4 μg/mL of a β-lactamase inhibitor) | < 100 nM | < 100 nM |
| O=C(COC1CCNCC1)N[C@H]1Cc2cccc(C(=O)O)c2OB1O [Example 39, 2-Hydroxy-3-[2-(piperidin-4-yloxy)-acetylamino]-3,4-dihydro-2H-benzo[e][1,2]oxaborinine-8-carboxylic acid] | C (the MIC in the presence of <4 μg/mL of a β-lactamase inhibitor) | < 100 nM | 100 to 1000 nM | B (the MIC in the presence of between 8 and 32 μg/mL of a β-lactamase inhibitor) | C (the MIC in the presence of <4 μg/mL of a β-lactamase inhibitor) | C (the MIC in the presence of <4 μg/mL of a β-lactamase inhibitor) | < 100 nM | C (the MIC in the presence of <4 μg/mL of a β-lactamase inhibitor) | C (the MIC in the presence of <4 μg/mL of a β-lactamase inhibitor) | < 100 nM | 100 to 1000 nM |
| NCCNC1CCN(CC(=O)N[C@H]2Cc3cccc(C(=O)O)c3OB2O)CC1 [Example 30, 3-{2-[4-(2-Amino-ethylamino)-piperidin-1-yl]-acetylamino}-2-hydroxy-3,4-dihydro-2H-benzo[e][1,2]oxaborinine-8-carboxylic acid] | A (an MIC of the fixed β-lactam antibiotic in the presence of >32 μg/mL of a β-lactamase inhibitor) | < 100 nM | 1000 to 10000 nM | A (an MIC of the fixed β-lactam antibiotic in the presence of >32 μg/mL of a β-lactamase inhibitor) | C (the MIC in the presence of <4 μg/mL of a β-lactamase inhibitor) | B (the MIC in the presence of between 8 and 32 μg/mL of a β-lactamase inhibitor) | < 100 nM | C (the MIC in the presence of <4 μg/mL of a β-lactamase inhibitor) | C (the MIC in the presence of <4 μg/mL of a β-lactamase inhibitor) | < 100 nM | < 100 nM |
